Assay: in vitro
Settings: human, hela cells, % viability

SMILES	viability at 28.5 h, 10 µM [%]
CC(=O)N1C2CCC1CC(O)(Cn1ccc3ccnc(Cl)c31)C2 (stereo not shown) [CBK284868]	106
O=C(CCn1c(C(F)(F)F)cc2cccnc21)N1CCOCC1 [CBK284869]	96.4
CC1CCN(C(=O)C2C3CCC4(CC(=O)c5ccccc5O4)C32)CC1 (stereo not shown) [CBK284872]	98.7
C=CCNC(=O)C1C2CCC3(CC(=O)c4cc(Cl)ccc4O3)C21 (stereo not shown) [CBK284873]	86.3
CC1CCc2n[nH]c(C(=O)N3CCc4ncc(Cl)cc4C3)c2C1 (stereo not shown) [CBK284874]	93.6
CN(C)[C@@H]1CN(Cc2cccnc2)C[C@H]1c1cn(C)c2ccccc12 [CBK284875]	110
CN1CCCc2cc(CN3CCC4(CCCNC4=O)CC3)ccc21 [CBK284876]	101
O=C1NCCCC12CCN(Cc1cccc(F)c1F)CC2 [CBK284877]	91.8
O=C1NCCCC12CCN(Cc1ccccc1N1CCCCC1)CC2 [CBK284878]	95.5
Cc1ccc2c(c1)C(NC(=O)C1CC1)CC1(CCOCC1)O2 (stereo not shown) [CBK284879]	93.4
CCOC(=O)C1(Cc2cc(-c3cccc(F)c3)no2)CCNCC1 [CBK284881]	89.4
Cc1cc(C[C@@H]2COC[C@H]2NCc2cccc(Cl)c2)on1 [CBK284885]	89.9
CN1C[C@]2(CC[C@@H](C(=O)N3CCCC3)CC2)Oc2ccccc2C1=O [CBK284886]	103
O=C1CN(C(=O)CCn2c(C(F)(F)F)cc3cccnc32)CCN1 [CBK284888]	92.8
CCNC(=O)[C@H]1CC[C@]2(CC1)CNC(=O)c1cc(Cl)ccc1O2 [CBK284890]	95.4
O=C(c1cccnc1)N1CCC(c2cc3ccccc3cn2)CC1 [CBK284891]	101
O=C(c1cc[nH]n1)N1CCC(c2cc3ccccc3cn2)CC1 [CBK284892]	91.7
CCOC(=O)[C@H]1CC[C@]2(CC1)CNC(=O)c1ccccc1O2 [CBK284893]	92.5
CN(C)C(=O)[C@H]1CC[C@]2(CC1)CNC(=O)c1ccccc1O2 [CBK284894]	92.7
CN1CCN(C(=O)CCn2c(C(F)(F)F)cc3cccnc32)CC1 [CBK284896]	93.7
Cn1nc(C2CCN(C(=O)c3cccc(F)c3)CC2)c2cccnc21 [CBK284898]	94
O=C1NCC2(CCCN(C(=O)c3cccs3)C2)Oc2ccccc21 (stereo not shown) [CBK284900]	102
O=C1NCC2(CCCN(Cc3ccccc3F)C2)Oc2ccccc21 (stereo not shown) [CBK284901]	95

SMILES	viability at 28.5 h, 10 µM [%]
Fc1ccc(CN2CCC(c3n[nH]c4ncccc34)CC2)cc1 [CBK284902]	96.2
O=C(c1cccc(F)c1)N1CCC(c2n[nH]c3ncccc23)CC1 [CBK284907]	109
O=C(c1cc(F)cc(F)c1)N1CCC(c2n[nH]c3ncccc23)CC1 [CBK284909]	87.9
Cc1ccsc1C(=O)N1CCC(c2n[nH]c3ncccc23)CC1 [CBK284910]	92.2
Cc1ccc(C(=O)N2CCC(c3n[nH]c4ncccc34)CC2)s1 [CBK284911]	90.8
Cn1cc(C2CCCCCN2C(=O)c2ccc(F)cc2)cn1 (stereo not shown) [CBK284913]	76.8
Cn1ccc(C2CCCCCN2C(=O)c2c(Cl)cnn2C)n1 (stereo not shown) [CBK284914]	102
Cn1ncc(Cl)c1C1CCCCCN1C(=O)c1ccco1 (stereo not shown) [CBK284915]	104
Cc1noc(C)c1C(=O)N1CCCCCC1c1c(Cl)cnn1C (stereo not shown) [CBK284918]	93.3
O=C(c1cc[nH]n1)N1CCCC(c2cc3ccccc3cn2)C1 (stereo not shown) [CBK284921]	85.2
O=C1CC2(CCC3C(C(=O)NC4CCCC4)C32)Oc2ccccc21 (stereo not shown) [CBK284922]	97.6
CCN(CC)C(=O)C1C2CCC3(CC(=O)c4ccccc4O3)C21 (stereo not shown) [CBK284923]	105
Cn1nc(C2CCN(C(=O)c3cccs3)CC2)c2cccnc21 [CBK284925]	82.9
Cc1cc(C)n(CC(=O)N2CCCC(c3cc4cccnc4[nH]3)C2)n1 (stereo not shown) [CBK284928]	96.2
CC(C)n1nccc1C(=O)N1CCCC(c2cc3cccnc3[nH]2)C1 (stereo not shown) [CBK284930]	99.3
CC1CCCN(C(=O)C2C3CCC4(CC(=O)c5ccccc5O4)C32)C1 (stereo not shown) [CBK284932]	89.8
Cc1cc(C[C@@H]2CCC[C@H]2NCc2cccnc2)on1 [CBK284933]	97.1
Cc1cc(C[C@@H]2CCC[C@H]2NCc2nc3ccccc3[nH]2)on1 [CBK284935]	87.3
O=C(C1CCCCC1)N1CCCC(c2cc3cccnc3[nH]2)C1 (stereo not shown) [CBK284938]	98.4
O=C(c1cccc(F)c1)N1CCCC(c2cc3cccnc3[nH]2)C1 (stereo not shown) [CBK284939]	122
O=C(c1cccs1)N1Cc2ccccc2OC2(CCOCC2)C1 [CBK284942]	103
C=Cn1cc(CN2CCCC(c3cc4cccnc4[nH]3)C2)c(C)n1 (stereo not shown) [CBK284944]	115
CC(C)(C)C(=O)N1CCCC(c2cc3cccnc3[nH]2)C1 (stereo not shown) [CBK284945]	102

— paper PMC12040169 (PLOS Biology, 2025)
